We go through 37 compounds from patent US11661426B2, “Imidazole-containing inhibitors of ALK2 kinase” (BioCryst Pharmaceuticals, Inc., priority 2017, dated 2023).

The experiment deals with ALK2 (Homo sapiens (Human), UniProt Q04771). Briefly: ALK2 inhibition, LanthaScreen Eu Kinase Binding Assay (ThermoFisher Scientific / Life Technologies). Particulars: read-out: Measured Ki (IC50) Value for Compounds: IC50. Here is the method: Biochemical assays to measure the inhibitory effects of the compounds were performed by ThermoFisher Scientific (Life Technologies). ALK2 inhibition was tested using LanthaScreen™ Eu Kinase Binding Assay screening protocol.
Chain of ALK2 (Q04771 21-509): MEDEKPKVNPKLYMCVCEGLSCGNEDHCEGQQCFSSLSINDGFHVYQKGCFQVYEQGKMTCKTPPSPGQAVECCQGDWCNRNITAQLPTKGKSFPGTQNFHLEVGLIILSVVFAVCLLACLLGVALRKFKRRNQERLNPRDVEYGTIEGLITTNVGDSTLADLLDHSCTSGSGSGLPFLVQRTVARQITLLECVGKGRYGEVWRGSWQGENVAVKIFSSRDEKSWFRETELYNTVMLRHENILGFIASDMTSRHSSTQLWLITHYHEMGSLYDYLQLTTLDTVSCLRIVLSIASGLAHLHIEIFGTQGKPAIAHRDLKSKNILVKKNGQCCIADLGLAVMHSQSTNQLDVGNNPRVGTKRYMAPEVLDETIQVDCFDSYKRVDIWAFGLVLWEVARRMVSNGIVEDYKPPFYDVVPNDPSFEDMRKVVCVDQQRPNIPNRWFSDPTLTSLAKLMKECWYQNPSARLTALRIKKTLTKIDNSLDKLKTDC
On the technique in general: In TR-FRET formats the signal depends on donor and acceptor labels being close together.
As usually defined, the IC50 is the concentration needed to halve the response being measured. For `Cn1cnc(Nc2nc(Cl)nc3ccoc23)c1` [Compound 1b, 2-chloro-N-(1-methyl-1H-imidazol-4-yl)furo[3,2-d]pyrimidin-4-amine], the IC50 is above 1000 nM.

As to `Cn1cnc(Nc2nc(N3CCC[C@H]3CO)nc3ccoc23)c1` [Compound 2a, (S)-(1-(4-((1-methyl-1H-imidazol-4-yl)amino)furo[3,2-d]pyrimidin-2-yl)pyrrolidin-2-yl)methanol], the IC50 lay in the range of 100 to 1000 nM.

For the compound `Cn1cnc(Nc2nc(N3CCC[C@@H]3CO)nc3ccoc23)c1` [Compound 3a, (R)-(1-(4-((1-methyl-1H-imidazol-4-yl)amino)furo[3,2-d]pyrimidin-2-yl)pyrrolidin-2-yl)methanol], the IC50 is above 1000 nM.

With `Cn1cnc(Nc2nc(Cl)nn3cccc23)c1` [Compound 4b, 2-chloro-N-(1-methyl-1H-imidazol-4-yl)pyrrolo[2,1-f][1,2,4]triazin-4-amine], the IC50 was above 1000 nM.

Consider `Cn1cnc(Nc2nc(N3CCCC3c3ccccn3)nn3cccc23)c1` (stereo not shown) [Compound 4c, N-(1-methyl-1H-imidazol-4-yl)-2-(2-(pyridin-2-yl)pyrrolidin-1-yl)pyrrolo[1,2-f][1,2,4]triazin-4-amine], for which the IC50 was below 100 nM.

As to `Cn1cnc(Nc2nc(N3CCCC3c3ccccn3)nc3ccoc23)c1` (stereo not shown) [Compound 5a, N-(1-methyl-1H-imidazol-4-yl)-2-(2-(pyridin-2-yl)pyrrolidin-1-yl)furo[3,2-d]pyrimidin-4-amine], the IC50 was below 100 nM.

On to `Cn1cnc(Nc2nc(N3CCC[C@H]3CO)nn3cccc23)c1` [Compound 6a, (S)-(1-(4-(1-methyl-1H-imidazol-4-ylamino)pyrrolo[1,2-f][1,2,4]triazin-2-yl)pyrrolidin-2-yl)methanol], for which the IC50 fell in the range of 100 to 1000 nM.

As to `Cn1cnc(Nc2nc(N3CCC[C@@H]3CO)nn3cccc23)c1` [Compound 7a, (R)-(1-(4-(1-methyl-1H-imidazol-4-ylamino)pyrrolo[1,2-f][1,2,4]triazin-2-yl)pyrrolidin-2-yl)methanol], the IC50 is above 1000 nM.

For `OC[C@@H]1CCCN1c1nc(Nc2cn(-c3ccccc3)cn2)c2cccn2n1` [Compound 8c, (S)-(1-(4-((1-phenyl-1H-imidazol-4-yl)amino)pyrrolo[2,1-f][1,2,4]triazin-2-yl)pyrrolidin-2-yl)methanol], the IC50 is below 100 nM.

`c1ccc(-n2cnc(Nc3nc(N4CCCC4c4ccccn4)nn4cccc34)c2)cc1` (stereo not shown) [Compound 9a, N-(1-phenyl-1H-imidazol-4-yl)-2-(2-(pyridin-2-yl)pyrrolidin-1-yl)pyrrolo[2,1-f][1,2,4]triazin-4-amine]: the IC50 fell in the range of 100 to 1000 nM.

`Cn1cnc(Nc2nc(N3CCCC3c3ccccc3)nn3cccc23)c1` (stereo not shown) [Compound 10a, N-(1-methyl-1H-imidazol-4-yl)-2-(2-phenylpyrrolidin-1-yl)pyrrolo[2,1-f][1,2,4]triazin-4-amine]: the IC50 is below 100 nM.

As for `Cn1cnc(Nc2nc(N3CCCC3c3cccnc3)nc3ccoc23)c1` (stereo not shown) [Compound 11a, N-(1-methyl-1H-imidazol-4-yl)-2-(2-(pyridin-3-yl)pyrrolidin-1-yl)furo[3,2-d]pyrimidin-4-amine], the IC50 was below 100 nM.

On to `Cn1cnc(Nc2nc(N3CCCC3c3ccccn3)nc3ccsc23)c1` (stereo not shown) [Compound 12c, N-(1-methyl-1H-imidazol-4-yl)-2-(2-(pyridin-2-yl)pyrrolidin-1-yl)thieno[3,2-d]pyrimidin-4-amine], for which the IC50 is below 100 nM.

Regarding `Cn1cnc(Nc2nc(N3CCCC3c3ccccc3)nc3ccoc23)c1` (stereo not shown) [Compound 13a, N-(1-methyl-1H-imidazol-4-yl)-2-(2-phenylpyrrolidin-1-yl)furo[3,2-d]pyrimidin-4-amine], the IC50 was below 100 nM.

On to `OC[C@@H]1CCCN1c1nc(Nc2cn(-c3ccccc3)cn2)c2occc2n1` [Compound 14b, (S)-(1-(4-((1-phenyl-1H-imidazol-4-yl)amino)furo[3,2-d]pyrimidin-2-yl)pyrrolidin-2-yl)methanol], for which the IC50 is below 100 nM.

Regarding `Cn1cnc(Nc2nc(N3CCC[C@H]3c3ccccc3)nn3cccc23)c1` [Compound 15a, (S)—N-(1-methyl-1H-imidazol-4-yl)-2-(2-phenylpyrrolidin-1-yl)pyrrolo[2,1-f][1,2,4]triazin-4-amine], the IC50 was below 100 nM.

Consider `OC[C@@H]1CCCN1c1nc(Nc2cn(-c3ccccc3)cn2)c2sccc2n1` [Compound 16b, (S)-(1-(4-((1-phenyl-1H-imidazol-4-yl)amino)thieno[3,2-d]pyrimidin-2-yl)pyrrolidin-2-yl)methanol], for which the IC50 was below 100 nM.

`C[C@H](Nc1nc(Nc2cn(-c3ccccc3)cn2)c2sccc2n1)c1ccccc1` [Compound 17a, (S)—N4-(1-phenyl-1H-imidazol-4-yl)-N2-(1-phenylethyl)thieno[3,2-d]pyrimidine-2,4-diamine]: the IC50 lay in the range of 100 to 1000 nM.

Turning to `Cn1cnc(Nc2nc(N3CCC[C@H]3c3ccccn3)nn3cccc23)c1` [Compound 18a, (S)—N-(1-methyl-1H-imidazol-4-yl)-2-(2-(pyridin-2-yl)pyrrolidin-1-yl)pyrrolo[2,1-f][1,2,4]triazin-4-amine], the IC50 is below 100 nM.

Take `Cn1cnc(Nc2nc(N3CCCC3c3cccnc3)nn3cccc23)c1` (stereo not shown) [Compound 19a, N-(1-methyl-1H-imidazol-4-yl)-2-(2-(pyridin-3-yl)pyrrolidin-1-yl)pyrrolo[2,1-f][1,2,4]triazin-4-amine]: the half-maximal inhibitory concentration (IC50) was below 100 nM.

In the case of `Cn1cnc(Nc2nc(N3CCCC3c3ccncc3)nn3cccc23)c1` (stereo not shown) [Compound 20a, N-(1-methyl-1H-imidazol-4-yl)-2-(2-(pyridin-4-yl)pyrrolidin-1-yl)pyrrolo[2,1-f][1,2,4]triazin-4-amine], the IC50 was in the range of 100 to 1000 nM.

With `C[C@H](Nc1nc(Nc2cn(C)cn2)c2ccccc2n1)c1ccccc1` [Compound 21c, (S)—N4-(1-methyl-1H-imidazol-4-yl)-N2-(1-phenylethyl)quinazoline-2,4-diamine], the IC50 was below 100 nM.

For the compound `Cc1cc2c(Nc3cn(-c4ccccc4)cn3)nc(N3CCC[C@H]3CO)nc2s1` [Compound 22c, (S)-(1-(6-methyl-4-((1-phenyl-1H-imidazol-4-yl)amino)thieno[2,3-d]pyrimidin-2-yl)pyrrolidin-2-yl)methanol], the 50% inhibitory concentration (IC50) is below 100 nM.

On to `Cc1cc2nc(N3CCC[C@H]3CO)nc(Nc3cn(-c4ccccc4)cn3)c2s1` [Compound 23c, (S)-(1-(6-methyl-4-((1-phenyl-1H-imidazol-4-yl)amino)thieno[3,2-d]pyrimidin-2-yl)pyrrolidin-2-yl)methanol], for which the IC50 was below 100 nM.

Regarding `C[C@H](Nc1nc(Nc2cn(-c3ccccc3)cn2)c2ccccc2n1)c1ccccc1` [Compound 24b, (S)—N4-(1-phenyl-1H-imidazol-4-yl)-N2-(1-phenylethyl)quinazoline-2,4-diamine], the IC50 fell in the range of 100 to 1000 nM.

`OC[C@@H]1CCCN1c1nc(Nc2cn(-c3ccc(F)cc3)cn2)c2cccn2n1` [Compound 25c, (S)-(1-(4-((1-(4-fluorophenyl)-1H-imidazol-4-yl)amino)pyrrolo[2,1-f][1,2,4]triazin-2-yl)pyrrolidin-2-yl)methanol]: the IC50 was below 100 nM.

As to `OC[C@@H]1CCCN1c1nc(Nc2cn(C3CC3)cn2)c2cccn2n1` [Compound 26c, (S)-(1-(4-((1-cyclopropyl-1H-imidazol-4-yl)amino)pyrrolo[2,1-f][1,2,4]triazin-2-yl)pyrrolidin-2-yl)methanol], the IC50 fell in the range of 100 to 1000 nM.

For the compound `c1ccc(C2CCCN2c2nc(Nc3cn(C4CC4)cn3)c3cccn3n2)nc1` (stereo not shown) [Compound 27a, N-(1-cyclopropyl-1H-imidazol-4-yl)-2-(2-(pyridin-2-yl)pyrrolidin-1-yl)pyrrolo[2,1-f][1,2,4]triazin-4-amine], the half-inhibitory concentration (IC50) was in the range of 100 to 1000 nM.

Regarding `OC[C@@H]1CCCN1c1nc(Nc2cn(C3CCCCC3)cn2)c2cccn2n1` [Compound 28c, (S)-(1-(4-((1-cyclohexyl-1H-imidazol-4-yl)amino)pyrrolo[2,1-f][1,2,4]triazin-2-yl)pyrrolidin-2-yl)methanol], the IC50 fell in the range of 100 to 1000 nM.

Consider `c1ccc(C2CCCN2c2nc(Nc3cn(C4CCCCC4)cn3)c3cccn3n2)nc1` (stereo not shown) [Compound 29a, N-(1-cyclohexyl-1H-imidazol-4-yl)-2-(2-(pyridin-2-yl)pyrrolidin-1-yl)pyrrolo[2,1-f][1,2,4]triazin-4-amine], for which the IC50 fell in the range of 100 to 1000 nM.

With `c1ccc(C2CCCN2c2nc(Nc3cn(C4CC4)cn3)c3cccn3n2)cc1` (stereo not shown) [Compound 30a, N-(1-cyclopropyl-1H-imidazol-4-yl)-2-(2-phenylpyrrolidin-1-yl)pyrrolo[2,1-f][1,2,4]triazin-4-amine], the half-inhibitory concentration (IC50) was 100 to 1000 nM.

With `OC[C@@H]1CCCN1c1nc(Nc2cn(-c3ccccc3)cn2)c2ccsc2n1` [Compound 31c, (S)-(1-(4-((1-phenyl-1H-imidazol-4-yl)amino)thieno[2,3-d]pyrimidin-2-yl)pyrrolidin-2-yl)methanol], the IC50 was below 100 nM.

Take `OC[C@@H]1CCCN1c1nc(Nc2cn(-c3ccccc3)cn2)c2ccccc2n1` [Compound 32a, (S)-(1-(4-((1-phenyl-1H-imidazol-4-yl)amino)quinazolin-2-yl)pyrrolidin-2-yl)methanol]: the IC50 was below 100 nM.

`c1ccc(-n2cnc(Nc3nc(N4CCCC4c4ccccn4)nc4ccoc34)c2)cc1` (stereo not shown) [Compound 33a, N-(1-phenyl-1H-imidazol-4-yl)-2-(2-(pyridin-2-yl)pyrrolidin-1-yl)furo[3,2-d]pyrimidin-4-amine]: the IC50 is below 100 nM.

Consider `CN1CCN(c2nc(Nc3cn(C)cn3)c3cccn3n2)CC1` [Compound 34a, N-(1-methyl-1H-imidazol-4-yl)-2-(4-methylpiperazin-1-yl)pyrrolo[2,1-f][1,2,4]triazin-4-amine], for which the half-maximal inhibitory concentration (IC50) is above 1000 nM.

Regarding `CN1CCN(c2nc(Nc3cn(-c4ccccc4)cn3)c3cccn3n2)CC1` [Compound 35a, 2-(4-methylpiperazin-1-yl)-N-(1-phenyl-1H-imidazol-4-yl)pyrrolo[2,1-f][1,2,4]triazin-4-amine], the IC50 lay within 100 to 1000 nM.

As to `OC[C@@H]1CCCN1c1nc(Nc2cn(-c3ccccc3F)cn2)c2cccn2n1` [Compound 36c, (S)-(1-(4-((1-(2-fluorophenyl)-1H-imidazol-4-yl)amino)pyrrolo[2,1-f][1,2,4]triazin-2-yl)pyrrolidin-2-yl)methanol], the IC50 was below 100 nM.
